Assay results: patent US10336732B2, “1-heterocyclyl isochromanyl compounds and analogs for treating CNS disorders” (Sunovion Pharmaceuticals Inc., priority 2015, dated 2019)

What follows are compounds tested on mice (assay: Neuropharmacological assay (SmartCube), behavioral signature of compound-treated mice). Settings: i.p. 15 min before behavioral test, most efficacious dose(s) of 3 doses.
Type: in vivo
Method in brief: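 Mice received compound i.p. in NMP/PEG/propylene glycol vehicle at 3 doses, 15 min before testing. Video-captured behavior was algorithmically compared with a reference-drug signature database.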
With `c1cc2c(c3c1CCO[C@H]3[C@@H]1CCCN1)OCO2` [Compound I-52, (S)-2-((R)-7,9-dihydro-6H-[1,3]dioxolo[4,5-h]isochromen-9-yl)pyrrolidine] the “AD: ADHD (probability that behavioral signature matches class)” value (“AD: ADHD” below) was “+ (LOQ ≤ + <5%)”, the “AG: analgesic (probability that behavioral signature matches class)” value (“AG: analgesic” for short) was “++ (5% ≤ ++ <25%)” and the “AX: anxiolytic (probability that behavioral signature matches class)” value (shortened to “AX: anxiolytic”) was “++++ (50% ≤ ++++)”. For the same compound, the “CE: cognitive enhancer (probability that behavioral signature matches class)” value (“CE: cognitive enhancer” for short) was “++ (5% ≤ ++ <25%)”, the “DP: anti-depressant (probability that behavioral signature matches class)” value (“DP: anti-depressant” below) was “++ (5% ≤ ++ <25%)” and the “HA: hallucinogen (probability that behavioral signature matches class)” value (“HA: hallucinogen” below) was “+ (LOQ ≤ + <5%)”. The “MS: mood stabilizer (probability that behavioral signature matches class)” value (“MS: mood stabilizer” for short) was “+ (LOQ ≤ + <5%)”, the “PS: anti-psychotic (probability that behavioral signature matches class)” value (“PS: anti-psychotic” for short) was “++ (5% ≤ ++ <25%)” and the “SD: sedative hypnotic (probability that behavioral signature matches class)” value (“SD: sedative hypnotic” below) was “+ (LOQ ≤ + <5%)”. For the same compound, the “UN: uncharacterized CNS activity (probability that behavioral signature matches class)” value (from here on “UN: uncharacterized CNS activity”) was “+++ (25% ≤ +++ <50%)” and the “XG: anxiogenic (probability that behavioral signature matches class)” value (from here on “XG: anxiogenic”) was “+ (LOQ ≤ + <5%)”.
`Fc1ccc2c(c1)CCO[C@H]2[C@@H]1COCCN1` [Compound I-78, (S)-3-((R)-6-fluoroisochroman-1-yl)morpholine] was tested, and the “AD: ADHD” value was “+ (LOQ ≤ + <5%)”, the “AG: analgesic” value was “++ (5% ≤ ++ <25%)” and the “AX: anxiolytic” value was “+++ (25% ≤ +++ <50%)”. The “CE: cognitive enhancer” value was “++ (5% ≤ ++ <25%)”, the “DP: anti-depressant” value was “++ (5% ≤ ++ <25%)” and the “HA: hallucinogen” value was “+ (LOQ ≤ + <5%)”. For the same compound, the “MS: mood stabilizer” value was “+ (LOQ ≤ + <5%)”, the “PS: anti-psychotic” value was “++ (5% ≤ ++ <25%)” and the “SD: sedative hypnotic” value was “+ (LOQ ≤ + <5%)”. The “UN: uncharacterized CNS activity” value was “+ (LOQ ≤ + <5%)” and the “XG: anxiogenic” value was “+ (LOQ ≤ + <5%)”.
In the case of `Fc1ccc2c(c1)CCO[C@@H]2[C@H]1CCN1` [Compound I-91, (R)-2-((S)-6-fluoroisochroman-1-yl)azetidine], the “AD: ADHD” value is reported as “+ (LOQ ≤ + <5%)”, the “AG: analgesic” value is reported as “++ (5% ≤ ++ <25%)” and the “AX: anxiolytic” value is reported as “++ (5% ≤ ++ <25%)”. The “CE: cognitive enhancer” value was “++ (5% ≤ ++ <25%)”, the “DP: anti-depressant” value was “++ (5% ≤ ++ <25%)” and the “HA: hallucinogen” value was “+ (LOQ ≤ + <5%)”. For the same compound, the “MS: mood stabilizer” value was “+ (LOQ ≤ + <5%)”, the “PS: anti-psychotic” value was “+++ (25% ≤ +++ <50%)” and the “SD: sedative hypnotic” value was “++ (5% ≤ ++ <25%)”. The “UN: uncharacterized CNS activity” value was “++ (5% ≤ ++ <25%)” and the “XG: anxiogenic” value was “+ (LOQ ≤ + <5%)”.
For `Fc1ccc2c(c1)CO[C@@H]2[C@@H]1CCN1` [Compound I-126, (S)-2-((S)-5-fluoro-1,3-dihydroisobenzofuran-1-yl)azetidine], the “AD: ADHD” value was “+ (LOQ ≤ + <5%)”, the “AG: analgesic” value was “++ (5% ≤ ++ <25%)” and the “AX: anxiolytic” value was “++ (5% ≤ ++ <25%)”. For the same compound, the “CE: cognitive enhancer” value was “++ (5% ≤ ++ <25%)”, the “DP: anti-depressant” value was “+++ (25% ≤ +++ <50%)” and the “HA: hallucinogen” value was “+ (LOQ ≤ + <5%)”. For the same compound, the “MS: mood stabilizer” value was “+ (LOQ ≤ + <5%)”, the “PS: anti-psychotic” value was “+++ (25% ≤ +++ <50%)” and the “SD: sedative hypnotic” value was “++ (5% ≤ ++ <25%)”. The “UN: uncharacterized CNS activity” value was “++ (5% ≤ ++ <25%)” and the “XG: anxiogenic” value was “+ (LOQ ≤ + <5%)”.
`Cc1ccc2c(c1)[C@H](C1CNC1)OCC2` [Compound I-117, (S)-3-(7-methylisochroman-1-yl)azetidine] was tested, and the “AD: ADHD” value was “+ (LOQ ≤ + <5%)”, the “AG: analgesic” value was “+ (LOQ ≤ + <5%)” and the “AX: anxiolytic” value was “++ (5% ≤ ++ <25%)”. The “CE: cognitive enhancer” value was “++ (5% ≤ ++ <25%)”, the “DP: anti-depressant” value was “++ (5% ≤ ++ <25%)” and the “HA: hallucinogen” value was “+ (LOQ ≤ + <5%)”. For the same compound, the “MS: mood stabilizer” value was “+ (LOQ ≤ + <5%)”, the “PS: anti-psychotic” value was “+++ (25% ≤ +++ <50%)” and the “SD: sedative hypnotic” value was “+ (LOQ ≤ + <5%)”. For the same compound, the “UN: uncharacterized CNS activity” value was “+ (LOQ ≤ + <5%)” and the “XG: anxiogenic” value was “+ (LOQ ≤ + <5%)”.
For `C[C@@]1([C@@H]2CCCN2)OCc2cc(F)ccc21` [Compound I-122, (S)-2-((R)-5-fluoro-1-methyl-1,3-dihydroisobenzofuran-1-yl)pyrrolidine], the “AD: ADHD” value was “+ (LOQ ≤ + <5%)”, the “AG: analgesic” value was “+ (LOQ ≤ + <5%)” and the “AX: anxiolytic” value was “++ (5% ≤ ++ <25%)”. The “CE: cognitive enhancer” value was “+ (LOQ ≤ + <5%)”, the “DP: anti-depressant” value was “++ (5% ≤ ++ <25%)” and the “HA: hallucinogen” value was “+ (LOQ ≤ + <5%)”. For the same compound, the “MS: mood stabilizer” value was “+ (LOQ ≤ + <5%)”, the “PS: anti-psychotic” value was “+ (LOQ ≤ + <5%)” and the “SD: sedative hypnotic” value was “+ (LOQ ≤ + <5%)”. The “UN: uncharacterized CNS activity” value was “+ (LOQ ≤ + <5%)” and the “XG: anxiogenic” value was “+ (LOQ ≤ + <5%)”.
With `c1ccc2c(c1)CCO[C@@H]2[C@@H]1COCCN1` [Compound I-75, (S)-3-((S)-isochroman-1-yl)morpholine] the “AD: ADHD” value was “+ (LOQ ≤ + <5%)”, the “AG: analgesic” value was “+ (LOQ ≤ + <5%)” and the “AX: anxiolytic” value was “++ (5% ≤ ++ <25%)”. The “CE: cognitive enhancer” value was “++ (5% ≤ ++ <25%)”, the “DP: anti-depressant” value was “+++ (25% ≤ +++ <50%)” and the “HA: hallucinogen” value was “+ (LOQ ≤ + <5%)”. For the same compound, the “MS: mood stabilizer” value was “++ (5% ≤ ++ <25%)”, the “PS: anti-psychotic” value was “++ (5% ≤ ++ <25%)” and the “SD: sedative hypnotic” value was “++ (5% ≤ ++ <25%)”. For the same compound, the “UN: uncharacterized CNS activity” value was “+ (LOQ ≤ + <5%)” and the “XG: anxiogenic” value was “+ (LOQ ≤ + <5%)”.
In the case of `N#Cc1ccc2c(c1)[C@H]([C@@H]1CCCN1)OCC2` [Compound I-40, (R)-1-((S)-pyrrolidin-2-yl)isochroman-7-carbonitrile], the “AD: ADHD” value is reported as “+ (LOQ ≤ + <5%)”, the “AG: analgesic” value is reported as “+ (LOQ ≤ + <5%)” and the “AX: anxiolytic” value is reported as “++ (5% ≤ ++ <25%)”. The “CE: cognitive enhancer” value was “++ (5% ≤ ++ <25%)”, the “DP: anti-depressant” value was “++ (5% ≤ ++ <25%)” and the “HA: hallucinogen” value was “+ (LOQ ≤ + <5%)”. The “MS: mood stabilizer” value was “+ (LOQ ≤ + <5%)”, the “PS: anti-psychotic” value was “+++ (25% ≤ +++ <50%)” and the “SD: sedative hypnotic” value was “+ (LOQ ≤ + <5%)”. For the same compound, the “UN: uncharacterized CNS activity” value was “+ (LOQ ≤ + <5%)” and the “XG: anxiogenic” value was “+ (LOQ ≤ + <5%)”.
